Experimental data: patent US20250298000A1, “PREPARATION OF CULTURE MEDIUM AND USE THEREFOR IN WATER TOXICITY CO[…]” (CHANGCHUN INSTITUTE OF APPLIED CHEMISTRY, CHINESE ACADEMY …, priority 2022, published 2025)

Test system: Bacillus subtilis
Experiment: Colorimetric detection of water toxicity with Bacillus subtilis cultured in CM-Fe medium and potassium ferricyanide (Prussian blue, absorbance at 690 nm, 96-well plate)
Format: cell-based
Conditions: bacterial suspension OD600=2, 8 mM potassium ferricyanide, 20 min reaction; for detection limit (toxicant concentration discerned with naked eyes by color difference): sample photographs
Method: The inhibition rate is specifically calculated as: Inhibition %=(1−Abstox/Abscon)×100(1); • wherein, Abstox represents the peak value of the ultraviolet absorption spectrum of the sample to be detected at 690 nm, and Abscon represents the peak value of the ultraviolet absorption spectrum of the standard sample at 690 nm; • the IC50 value is calculated by: taking a concentration of toxicant in the water to be detected as the abscissa and the inhibition rate as the ordinate, drawing a curve, and fitting to obtain the IC50 value.
20 g of glucose, 15 g of peptone, 5 g of NaCl, 0.5 g of yeast extract and 0.001-10 g of ferric citrate were weighed, mixed and ground into powder by a dry grinding method in a ball mill to obtain a new culture medium CM-Fe.
1-100 g of CM and 1-100 g of CM-Fe culture media were added into two 1 L beakers respectively, adjusted to a volume of 1 L by adding deionized water, stirred, ultrasonicated, dissolved, and aliquoted in six 500 mL triangular flasks (3 for each culture medium), which were sealed with a sterile filtration sealing film, sterilized with high-temperature and high-pressure at 121° C. (98 kPa) for 5-40 min, and cooled down for later use.
Bacillus subtilis was inoculated into sterilized CM and CM-Fe culture media respectively, and cultured in a constant temperature shaker at 50-300 rpm at 37° C. for 8-30 h. The cultured bacterial liquid was centrifuged at 3000-10000 rpm for 1-20 min, then centrifuged and washed twice with 0.1-30% NaCl solution to remove the culture medium. Finally, Bacillus subtilis was resuspended in 0.1-30% NaCl solution and placed at 0-30° C. for later use.
100 μL of two suspensions of bacteria with OD600=2, 50 μL of Cu^2+ at varying concentrations and 50 μL of 8 mM potassium ferricyanide were mixed in the wells of a 96-well plate and reacted for 20 min. […] At low Cu^2+, concentrations, the color of the toxic samples was similar to that of the non-toxic samples. […] The final concentrations of toxicants from top to bottom were 0 mg/L, 0.49 mg/L, 0.98 mg/L, 1.95 mg/L, 3.9 mg/L, 7.8 mg/L and 15.63 mg/L, respectively. […]

Compound | IC20 fitted from inhibition rate curve (peak at 690 nm) [µg/mL] | detection limit (toxicant concentration discerned with naked eyes by color difference) [mg/L]
[Cu+2] [Cu^2+] | 2.4 | 3.9
[Hg+2] [Hg^2+] |  | 0.49
